Laboratory results taken from patent US5622936A (priority 1988, dated 1997).

What was measured:
[1] = system: glycosidases; test: Enzymatic cleavage of the glycosidic bond by glycosidases (release of IPM); type: biochemical; conditions: glycosidases / enzyme mixtures, TLC, NBP detection
Experimental: On incubation of the glycosides in HEPES or water with corresponding glycosidases a rapid cleavage of the glycosidic bond could be observed.
(§1) Because each in 50 and 51 two glycosidic bonds are present, showing the same (51β) or a different configuration (f.i. 50α), along with single glucosidases enzyme mixtures were used to check the enzymatic release of IPM. The enzymatic cieavage of the pure anomeric conjugates 50 and 51 was monitored by TLC; intact conjugates or the cleavage products 28α, 28β or IPM were detected with NBP.

[2] = system: β-glucosidase; test: Cleavage by a single enzyme, β-glucosidase (TLC); type: biochemical
Source text: as §1

[3] = Stability in methanolic solution (TLC analysis); type: physicochemical; conditions: room temperature
[4] = system: mammary tumor cell-line 1C29; test: Cytotoxic activity in vitro, mammary tumor cell line 1C29; type: cell-based, rat
Source text: (§2) This was confirmed by measuring the biological efficiency, namely the cytotoxic activity in vitro by studies done on a murine retrothelial sarcoma, and on rat mammary tumor cell lines, and on Eb/Esb cell lines.

[5] = system: mammary tumor cell-line 1C32; test: Cytotoxic activity in vitro, mammary tumor cell line 1C32; type: cell-based, rat
Source text: as §2

[6] = system: mammary tumor cell-line 1C39; test: Cytotoxic activity in vitro, mammary tumor cell line 1C39; type: cell-based, rat
Source text: as §2

[7] = Acute toxicity in male CD2 F1 mice with autopsy; type: in vivo, mouse; conditions: 100 and 1000 mg/kg i.p.
Source text: (§3) Autopsy of the animals after 28 days gave no findings. […] The result of autopsy (among others liver, kidneys, spleen, brain, bone marrow) on day 15 after the onset of treatment gave no finding.

[8] = system: bone-marrow; test: Bone-marrow toxicity
[9] = system: retrothelial sarcoma cells
[10] = Toxicity in BD6 rats with transplanted 1C32 tumor with autopsy; type: in vivo, rat
Source text: as §3

O=P(NCCCl)(NCCCl)O[C@H]1O[C@H](CO)[C@@H](O[C@@H]2O[C@H](CO)[C@@H](O)[C@H](O)[C@H]2O)[C@H](O)[C@H]1O [Compound 51α, 4-O-(β-D-glucopyranosyl) α-D-glucopyranosyl N,N'-di-(2-chlorethyl) phosphoric acid diamide]
cleavage required for the release of IPM [1]: cleavage of two different glycosidic bonds was required

O=P(NCCCl)(NCCCl)O[C@@H]1O[C@H](CO)[C@@H](O[C@@H]2O[C@H](CO)[C@@H](O)[C@H](O)[C@H]2O)[C@H](O)[C@H]1O [Compound 51β, 4-O-(β-D-Glucopyranosyl) β-D-glucopyranosyl N,N'-di-(2-chloroethyl) phosphoric acid diamide]
complete cleavage by a single enzyme [2]: could be completely cleaved by a single enzyme

O=P(NCCCl)(NCCCl)OC1O[C@H](CO)[C@@H](O[C@@H]2O[C@H](CO)[C@H](O)[C@H](O)[C@H]2O)[C@H](O)[C@H]1O (some centres unmarked) [Compound 50]
cleavage required for the release of IPM [1]: cleavage of two different glycosidic bonds was required
stability [3]: stable

O=P(NCCCl)(NCCCl)OC1O[C@H](CO)[C@@H](O[C@@H]2O[C@H](CO)[C@@H](O)[C@H](O)[C@H]2O)[C@H](O)[C@H]1O (some centres unmarked) [Compound 51]
stability [3]: stable

O=P(NCCCl)(NCCCl)O[C@@H]1O[C@H](CO)[C@H](O)[C@H](O)[C@H]1O [Compound 29β, β-D-Galactopyranosyl N,N'-di-(2-chloroethyl) phosphoric acid diamide]
most effective agent (cytotoxic activity) [4]: always the most effective agent
most effective agent (cytotoxic activity) [5]: always the most effective agent
most effective agent (cytotoxic activity) [6]: always the most effective agent

O=P(NCCCl)(NCCCl)O[C@@H]1O[C@H](CO)[C@@H](O)[C@H](O)[C@H]1O [Compound 28β, β-D-Glucopyranosyl N,N'-di-(2-chloroethyl) phosphoric acid diamide]
acute toxicity [7]: no acute toxicity could be observed
autopsy ([7]; after 28 days): no findings
bone-marrow toxicity [8]: very low

O=P(O)(NCCCl)NCCCl [IPM]
cytotoxicity [9]: cytotoxicity

O=P(NCCCl)(NCCCl)OC1O[C@H](CO)[C@H](O)[C@H](O)[C@H]1O (some centres unmarked) [Gal-IPM]
toxicity ([10]; BD6 rats with transplanted 1C32 tumor, 5-122.5 and 5-245 mg/kg, resp.): did not show any toxicity
autopsy ([10]; day 15 after onset of treatment, liver, kidneys, spleen, brain, bone marrow): no finding
